Measured values from patent publication US11339157B1, “4H-pyrrolo[3,2-c]pyridin-4-one derivatives” (Bayer Aktiengesellschaft, priority 2017, dated 2022).
Several values for one entry are separate records, joined by “and”; a condition that tells them apart may be missing. Equal entries are not always repeated.

What was measured:
[1] = molecular target: EGFR ins SVD (insertion of SVD between D770 and N771) (Homo sapiens, UniProt P00533, INS767SVD); experiment: Exon 20-Mutant-EGFR(D770_N771insSVD) kinase assay (TR-FRET); type: biochemical; conditions: Table 9; read-out: mutEGFR (D770_N771insSVD) kinase assay IC50
EGFR ins SVD (insertion of SVD between D770 and N771), sequence (P00533 with tags, fused parts or gaps INS767SVD limits assumed): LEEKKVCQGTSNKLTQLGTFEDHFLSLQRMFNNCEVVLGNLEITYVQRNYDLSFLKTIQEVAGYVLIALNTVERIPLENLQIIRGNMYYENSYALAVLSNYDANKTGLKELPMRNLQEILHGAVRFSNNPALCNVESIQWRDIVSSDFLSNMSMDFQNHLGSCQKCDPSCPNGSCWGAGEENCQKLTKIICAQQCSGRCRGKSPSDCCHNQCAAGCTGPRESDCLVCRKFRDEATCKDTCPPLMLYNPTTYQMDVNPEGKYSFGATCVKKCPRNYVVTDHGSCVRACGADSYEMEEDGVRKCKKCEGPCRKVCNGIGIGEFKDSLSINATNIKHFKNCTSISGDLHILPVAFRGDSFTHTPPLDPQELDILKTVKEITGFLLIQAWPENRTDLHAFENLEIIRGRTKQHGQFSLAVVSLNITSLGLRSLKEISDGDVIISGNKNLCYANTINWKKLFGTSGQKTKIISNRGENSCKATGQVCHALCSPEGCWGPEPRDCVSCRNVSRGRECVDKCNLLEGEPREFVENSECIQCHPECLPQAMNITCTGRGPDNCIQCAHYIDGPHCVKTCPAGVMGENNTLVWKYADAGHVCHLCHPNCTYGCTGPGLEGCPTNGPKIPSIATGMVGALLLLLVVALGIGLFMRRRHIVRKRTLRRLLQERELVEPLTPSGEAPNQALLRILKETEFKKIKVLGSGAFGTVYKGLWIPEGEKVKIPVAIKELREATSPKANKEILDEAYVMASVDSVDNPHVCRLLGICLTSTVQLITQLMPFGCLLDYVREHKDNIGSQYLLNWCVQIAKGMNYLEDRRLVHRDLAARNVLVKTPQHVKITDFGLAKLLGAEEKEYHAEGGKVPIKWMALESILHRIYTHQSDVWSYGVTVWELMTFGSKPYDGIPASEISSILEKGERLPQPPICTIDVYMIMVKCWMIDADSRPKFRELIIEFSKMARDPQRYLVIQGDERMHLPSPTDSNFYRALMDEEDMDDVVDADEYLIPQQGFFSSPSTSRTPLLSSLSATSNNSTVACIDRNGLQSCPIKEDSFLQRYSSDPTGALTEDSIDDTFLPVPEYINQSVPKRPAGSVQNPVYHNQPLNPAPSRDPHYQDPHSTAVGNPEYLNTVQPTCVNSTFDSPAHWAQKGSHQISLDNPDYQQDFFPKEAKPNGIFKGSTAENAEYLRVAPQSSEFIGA

Ba/F3-EGFR-insSVD cells = experiment: Proliferation assay in BA/F3 (ins SVD) cells (Cell Titer-Glo); type: cell-based
Description: (§1) Cellular Data Description (WT, insSVD, Ins ASV)
(§2) Plates were incubated at 37° C. for 48 h. Retrovirus was harvested by filtering the media supernatant through a 0.45 μm filter.
(§3) Ba/F3 cells purchased from DSMZ were grown in RPMI+10% FBS+10 ng/mL IL-3 and infected with filtered retroviral supernatant at a 1:2 dilution. Polybrene was added to a concentration of 8 μg/mL, plates were spun for 90 min, and incubated overnight at 37° C. 2 μg/mL puromycin was added to the infected cells 24 h after infection and cells were continually grown in the presence of puromycin and 10 ng/mL IL-3. Following stably expressing Ba/F3 cell lines were generated: Ba/F3-EGFR-WT, Ba/F3-EGFR-insSVD.
(§4) The cells ectopically expressing WT EGFR were plated with 10 ng/mL Millipore Culture grade EGF. The cells ectopically expressing EGFR-insSVD were plated without EGF.
(§5) 100 nL of compound was added to each well using a 100 nL pin head, and plates were incubated at 37° C. for 48 h.
(§6) Cell viability was measured by adding 30 μL of Cell Titer-Glo Luminescent Cell Viability Reagent. Plates were sealed with Perkin Elmer Top-Seal, inverted several times to mix, and immediately centrifuged at 1000 rpm for 2 min. Plates were incubated in low light conditions for 8-10 min and luminescence was measured.

Ba/F3-EGFR-WT cells = experiment: Proliferation assay in BA/F3 (wild type) cells (Cell Titer-Glo); type: cell-based
Description: as §1, §2, §3, §4, §5, §6

[2] = Table 10, plated without EGF, 48 h
[3] = Mus musculus, BaF3, 48 h, Table 10, plated with 10 ng/mL EGF
[4] = Mus musculus, BaF3, 48 h, Table 10, plated without EGF
[5] = Mus musculus, BaF3, Table 10, plated without EGF, 48 h

SMILES	IC50 [1]	IC50 (Ba/F3-EGFR-insSVD cells; [2])	IC50 (Ba/F3-EGFR-WT cells; [3])	IC50 (Ba/F3-EGFR-WT cells; Table 10, plated with 10 ng/mL EGF, 48 h)	IC50 (Ba/F3-EGFR-insSVD cells; [4])	IC50 (Ba/F3-EGFR-insSVD cells; [5])	IC50 (Ba/F3-EGFR-WT cells; Mus musculus, BaF3, Table 10, plated with 10 ng/mL EGF, 48 h)
COc1c(F)cccc1Nc1c(-c2ccncc2OCC2CCCO2)[nH]c2c1C(=O)NCC2 (single isomer, unassigned; enantiomer 1) [Example 88, 3-(3-fluoro-2-methoxyanilino)-2-{3-[(oxolan-2-yl)methoxy]pyridin-4-yl}-1,5,6,7-tetrahydro-4H-pyrrolo[3,2-c]pyridin-4-one (enantiomer 1)]	0.0888 nM	38 nM	388 nM	–	–	–	–
COc1c(F)cccc1Nc1c(-c2ccncc2OCC2CCCO2)[nH]c2c1C(=O)NCC2 (single isomer, unassigned; enantiomer 2) [Example 89, 3-(3-fluoro-2-methoxyanilino)-2-{3-[(oxolan-2-yl)methoxy]pyridin-4-yl}-1,5,6,7-tetrahydro-4H-pyrrolo[3,2-c]pyridin-4-one (enantiomer 2)]	0.108 nM	12.8 nM	–	252 nM	–	–	–
COC(C)(C)COc1cnccc1-c1[nH]c2c(c1Nc1cccc(F)c1C)C(=O)NCC2 [Example 21, 3-[(3-fluoro-2-methylphenyl)amino]-2-[3-(2-methoxy-2-methylpropoxy)pyridin-4-yl]-1,5,6,7-tetrahydro-4H-pyrrolo[3,2-c]pyridin-4-one]	–	7.48 nM and < 4.78 nM and 6.8 nM and 7.49 nM	251 nM	–	8.81 nM	–	–
COCCOc1cnccc1-c1[nH]c2c(c1Nc1cccc(Cl)c1OC)C(=O)NCC2 [Example 32, 3-(3-chloro-2-methoxyanilino)-2-[3-(2-methoxyethoxy)pyridin-4-yl]-1,5,6,7-tetrahydro-4H-pyrrolo[3,2-c]pyridin-4-one]	0.076 nM and < 0.0725 nM	–	299 nM	–	9.87 nM	–	–
COc1c(Cl)cccc1Nc1c(-c2ccncc2OCC(C)(C)OC)[nH]c2c1C(=O)NCC2 [Example 33, 3-(3-chloro-2-methoxyanilino)-2-[3-(2-methoxy-2-methylpropoxy)pyridin-4-yl]-1,5,6,7-tetrahydro-4H-pyrrolo[3,2-c]pyridin-4-one]	0.225 nM and 0.334 nM and 0.166 nM and 0.161 nM and 0.275 nM and < 0.0725 nM	–	476 nM	–	9.32 nM	–	–
COC(C)(C)COc1cnccc1-c1[nH]c2c(c1Nc1cccc(Cl)c1Cl)C(=O)NCC2 [Example 34, 3-(2,3-dichloroanilino)-2-[3-(2-methoxy-2-methylpropoxy)pyridin-4-yl]-1,5,6,7-tetrahydro-4H-pyrrolo[3,2-c]pyridin-4-one]	0.0946 nM	–	278 nM	–	7 nM	–	–
CCc1c(F)cccc1Nc1c(-c2ccncc2OCC(C)(C)OC)[nH]c2c1C(=O)NCC2 [Example 35, 3-(2-ethyl-3-fluoroanilino)-2-[3-(2-methoxy-2-methylpropoxy)pyridin-4-yl]-1,5,6,7-tetrahydro-4H-pyrrolo[3,2-c]pyridin-4-one]	0.185 nM	–	428 nM	–	7.98 nM	–	–
COC(C)(C)COc1cnccc1-c1[nH]c2c(c1Nc1cccc(Cl)c1C)C(=O)NCC2 [Example 36, 3-(3-chloro-2-methylanilino)-2-[3-(2-methoxy-2-methylpropoxy)pyridin-4-yl]-1,5,6,7-tetrahydro-4H-pyrrolo[3,2-c]pyridin-4-one]	0.194 nM	–	529 nM	–	9.55 nM	–	–
COC(C)(C)COc1cnccc1-c1[nH]c2c(c1Nc1cccc(F)c1Br)C(=O)NCC2 [Example 37, 3-(2-bromo-3-fluoroanilino)-2-[3-(2-methoxy-2-methylpropoxy)pyridin-4-yl]-1,5,6,7-tetrahydro-4H-pyrrolo[3,2-c]pyridin-4-one]	0.12 nM and 0.0795 nM and 0.107 nM and 0.0958 nM and < 0.0725 nM (2×)	–	583 nM	–	16 nM	–	–
COC(C)(C)COc1cnccc1-c1[nH]c2c(c1Nc1cccc(Cl)c1OC(F)F)C(=O)NCC2 [Example 38, 3-[3-chloro-2-(difluoromethoxy)anilino]-2-[3-(2-methoxy-2-methylpropoxy)pyridin-4-yl]-1,5,6,7-tetrahydro-4H-pyrrolo[3,2-c]pyridin-4-one]	0.13 nM	–	466 nM	–	17.5 nM	–	–
COC(C)(C)COc1cnccc1-c1[nH]c2c(c1Nc1ccccc1Cl)C(=O)NCC2 [Example 39, 3-(2-chloroanilino)-2-[3-(2-methoxy-2-methylpropoxy)pyridin-4-yl]-1,5,6,7-tetrahydro-4H-pyrrolo[3,2-c]pyridin-4-one]	0.104 nM	–	661 nM	–	27.5 nM	–	–
COC(C)(C)COc1cnccc1-c1[nH]c2c(c1Nc1cc(F)cc(F)c1C)C(=O)NCC2 [Example 40, 3-(3,5-difluoro-2-methylanilino)-2-[3-(2-methoxy-2-methylpropoxy)pyridin-4-yl]-1,5,6,7-tetrahydro-4H-pyrrolo[3,2-c]pyridin-4-one]	0.0994 nM	–	1450 nM	–	50.5 nM	–	–
COC(C)(C)COc1cnccc1-c1[nH]c2c(c1Nc1cccc(F)c1C(F)(F)F)C(=O)NCC2 [Example 41, 3-[3-fluoro-2-(trifluoromethyl)anilino]-2-[3-(2-methoxy-2-methylpropoxy)pyridin-4-yl]-1,5,6,7-tetrahydro-4H-pyrrolo[3,2-c]pyridin-4-one]	0.124 nM	–	795 nM	–	52.5 nM	–	–
COC(C)(C)COc1cnccc1-c1[nH]c2c(c1Nc1ccccc1C(F)(F)F)C(=O)NCC2 [Example 42, 2-[3-(2-methoxy-2-methylpropoxy)pyridin-4-yl]-3-[2-(trifluoromethyl)anilino]-1,5,6,7-tetrahydro-4H-pyrrolo[3,2-c]pyridin-4-one]	0.19 nM	–	625 nM	–	72.9 nM	–	–
COC(C)(C)COc1cnccc1-c1[nH]c2c(c1Nc1cc(F)cc(F)c1OC(F)F)C(=O)NCC2 [Example 43, 3-[2-(difluoromethoxy)-3,5-difluoroanilino]-2-[3-(2-methoxy-2-methylpropoxy)pyridin-4-yl]-1,5,6,7-tetrahydro-4H-pyrrolo[3,2-c]pyridin-4-one]	0.1 nM	–	1880 nM	–	117 nM	–	–
COc1c(Nc2c(-c3ccncc3OCC(C)(C)OC)[nH]c3c2C(=O)NCC3)ccc(F)c1Cl [Example 44, 3-(3-chloro-4-fluoro-2-methoxyanilino)-2-[3-(2-methoxy-2-methylpropoxy)pyridin-4-yl]-1,5,6,7-tetrahydro-4H-pyrrolo[3,2-c]pyridin-4-one]	0.0922 nM and < 0.0725 nM	–	2450 nM	–	173 nM	–	–
COC(C)(C)COc1cnccc1-c1[nH]c2c(c1Nc1cc(F)ccc1C)C(=O)NCC2 [Example 45, 3-(5-fluoro-2-methylanilino)-2-[3-(2-methoxy-2-methylpropoxy)pyridin-4-yl]-1,5,6,7-tetrahydro-4H-pyrrolo[3,2-c]pyridin-4-one]	0.319 nM	–	2490 nM	–	255 nM	–	–
COCCOc1cnccc1-c1[nH]c2c(c1Nc1cccc(Cl)c1Cl)C(=O)NCC2 [Example 46, 3-(2,3-dichloroanilino)-2-[3-(2-methoxyethoxy)pyridin-4-yl]-1,5,6,7-tetrahydro-4H-pyrrolo[3,2-c]pyridin-4-one]	0.0912 nM	–	364 nM	–	15.1 nM	–	–
COCCOc1cnccc1-c1[nH]c2c(c1Nc1ccccc1C(F)(F)F)C(=O)NCC2 [Example 47, 2-[3-(2-methoxyethoxy)pyridin-4-yl]-3-[2-(trifluoromethyl)anilino]-1,5,6,7-tetrahydro-4H-pyrrolo[3,2-c]pyridin-4-one]	0.169 nM	–	3240 nM	–	448 nM	–	–
COc1c(Cl)cccc1Nc1c(-c2ccncc2OC[C@@H]2CCCN2C)[nH]c2c1C(=O)NCC2 [Example 48, 3-(3-chloro-2-methoxyanilino)-2-(3-{[(2S)-1-methylpyrrolidin-2-yl]methoxy}pyridin-4-yl)-1,5,6,7-tetrahydro-4H-pyrrolo[3,2-c]pyridin-4-one]	0.358 nM	–	276 nM	–	5.59 nM	–	–
Cc1c(F)cccc1Nc1c(-c2ccncc2OC[C@@H]2CCCN2C)[nH]c2c1C(=O)NCC2 [Example 49, 3-(3-fluoro-2-methylanilino)-2-(3-{[(25)-1-methylpyrrolidin-2-yl]methoxy}pyridin-4-yl)-1,5,6,7-tetrahydro-4H-pyrrolo[3,2-c]pyridin-4-one]	0.518 nM	–	–	–	–	19.1 nM	919 nM
COc1c(Cl)cccc1Nc1c(-c2ccncc2OC[C@@H]2CCCO2)[nH]c2c1C(=O)NCC2 [Example 66, 3-(3-chloro-2-methoxyanilino)-2-(3-{[(2S)-oxolan-2-yl]methoxy}pyridin-4-yl)-1,5,6,7-tetrahydro-4H-pyrrolo[3,2-c]pyridin-4-one]	0.0932 nM	–	–	–	–	4.6 nM	–
COc1c(Cl)cccc1Nc1c(-c2ccncc2OC[C@H]2CCCO2)[nH]c2c1C(=O)NCC2 [Example 67, 3-(3-chloro-2-methoxyanilino)-2-(3-{[(2R)-oxolan-2-yl]methoxy}pyridin-4-1)-1,5,6,7-tetrahydro-4H-pyrrolo[3,2-c]pyridin-4-one]	0.0908 nM	–	–	–	–	9.33 nM	–
